From ChEMBL document CHEMBL1208782, “Synthesis and pharmacological validation of a novel series of non-steroidal FXR agonists” (Bioorg Med Chem Lett, 2010) come the findings set out here.

Holding throughout (assay type): functional, cell-based
Assay [1] concerns the target T1, Thyroid hormone receptor alpha (Homo sapiens, UniProt P10827).
T1 sequence (P10827 whole entry): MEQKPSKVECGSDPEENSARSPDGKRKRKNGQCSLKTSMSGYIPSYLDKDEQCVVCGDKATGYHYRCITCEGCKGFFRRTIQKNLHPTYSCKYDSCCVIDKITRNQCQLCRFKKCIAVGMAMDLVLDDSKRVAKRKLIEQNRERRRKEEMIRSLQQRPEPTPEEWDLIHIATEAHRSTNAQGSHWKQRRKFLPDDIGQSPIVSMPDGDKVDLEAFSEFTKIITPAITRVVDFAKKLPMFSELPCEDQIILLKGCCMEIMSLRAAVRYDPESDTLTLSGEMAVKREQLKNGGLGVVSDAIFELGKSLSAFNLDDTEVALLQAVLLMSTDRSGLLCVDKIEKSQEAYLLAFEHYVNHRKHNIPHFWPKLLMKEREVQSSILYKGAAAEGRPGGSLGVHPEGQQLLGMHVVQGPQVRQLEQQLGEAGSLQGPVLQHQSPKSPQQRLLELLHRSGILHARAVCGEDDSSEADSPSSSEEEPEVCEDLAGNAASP
Briefly: Agonist activity at TRalpha-LBD expressed in HEK293 cells assessed as Gal4-DBD interaction by cellular mammalian one hybrid assay.

Assay [2] has as its target T2, Retinoic acid receptor RXR-alpha (Homo sapiens, UniProt P19793).
T2 sequence (P19793 whole entry): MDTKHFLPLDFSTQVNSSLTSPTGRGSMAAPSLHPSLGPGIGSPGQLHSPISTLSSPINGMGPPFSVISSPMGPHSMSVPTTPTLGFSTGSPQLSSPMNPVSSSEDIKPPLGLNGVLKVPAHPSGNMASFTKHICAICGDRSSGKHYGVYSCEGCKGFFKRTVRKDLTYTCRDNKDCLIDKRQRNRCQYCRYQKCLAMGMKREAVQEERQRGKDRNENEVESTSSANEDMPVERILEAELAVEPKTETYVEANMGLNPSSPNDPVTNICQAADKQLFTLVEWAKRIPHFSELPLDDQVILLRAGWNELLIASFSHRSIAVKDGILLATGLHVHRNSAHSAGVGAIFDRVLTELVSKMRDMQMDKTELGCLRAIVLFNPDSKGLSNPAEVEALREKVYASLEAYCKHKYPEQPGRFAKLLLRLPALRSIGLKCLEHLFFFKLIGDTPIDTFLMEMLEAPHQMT
Briefly: Agonist activity at RXRalpha-LBD expressed in HEK293 cells assessed as Gal4-DBD interaction by cellular mammalian one hybrid assay.

For assay [3], the target named is T3, Retinoic acid receptor beta (Homo sapiens) (UniProt P10826).
T3 sequence (whole entry): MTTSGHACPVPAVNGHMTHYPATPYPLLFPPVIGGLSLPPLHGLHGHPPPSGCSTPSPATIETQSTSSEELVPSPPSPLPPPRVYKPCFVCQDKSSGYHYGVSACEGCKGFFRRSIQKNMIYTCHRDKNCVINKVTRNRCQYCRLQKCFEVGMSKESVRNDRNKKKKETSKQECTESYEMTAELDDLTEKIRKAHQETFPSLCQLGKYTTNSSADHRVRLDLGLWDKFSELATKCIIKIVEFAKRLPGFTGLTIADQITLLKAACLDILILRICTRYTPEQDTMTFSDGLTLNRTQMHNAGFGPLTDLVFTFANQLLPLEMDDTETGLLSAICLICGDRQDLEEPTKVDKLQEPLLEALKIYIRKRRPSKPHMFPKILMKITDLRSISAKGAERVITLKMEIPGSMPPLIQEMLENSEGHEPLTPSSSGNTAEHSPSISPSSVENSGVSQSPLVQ
As to the kind of experiment: Agonist activity at RARbeta-LBD expressed in HEK293 cells assessed as Gal4-DBD interaction by cellular mammalian one hybrid assay relative to retinoic acid.

The target of a further assay is T4, Androgen receptor (Homo sapiens, UniProt P10275).
T4 sequence (P10275 whole entry): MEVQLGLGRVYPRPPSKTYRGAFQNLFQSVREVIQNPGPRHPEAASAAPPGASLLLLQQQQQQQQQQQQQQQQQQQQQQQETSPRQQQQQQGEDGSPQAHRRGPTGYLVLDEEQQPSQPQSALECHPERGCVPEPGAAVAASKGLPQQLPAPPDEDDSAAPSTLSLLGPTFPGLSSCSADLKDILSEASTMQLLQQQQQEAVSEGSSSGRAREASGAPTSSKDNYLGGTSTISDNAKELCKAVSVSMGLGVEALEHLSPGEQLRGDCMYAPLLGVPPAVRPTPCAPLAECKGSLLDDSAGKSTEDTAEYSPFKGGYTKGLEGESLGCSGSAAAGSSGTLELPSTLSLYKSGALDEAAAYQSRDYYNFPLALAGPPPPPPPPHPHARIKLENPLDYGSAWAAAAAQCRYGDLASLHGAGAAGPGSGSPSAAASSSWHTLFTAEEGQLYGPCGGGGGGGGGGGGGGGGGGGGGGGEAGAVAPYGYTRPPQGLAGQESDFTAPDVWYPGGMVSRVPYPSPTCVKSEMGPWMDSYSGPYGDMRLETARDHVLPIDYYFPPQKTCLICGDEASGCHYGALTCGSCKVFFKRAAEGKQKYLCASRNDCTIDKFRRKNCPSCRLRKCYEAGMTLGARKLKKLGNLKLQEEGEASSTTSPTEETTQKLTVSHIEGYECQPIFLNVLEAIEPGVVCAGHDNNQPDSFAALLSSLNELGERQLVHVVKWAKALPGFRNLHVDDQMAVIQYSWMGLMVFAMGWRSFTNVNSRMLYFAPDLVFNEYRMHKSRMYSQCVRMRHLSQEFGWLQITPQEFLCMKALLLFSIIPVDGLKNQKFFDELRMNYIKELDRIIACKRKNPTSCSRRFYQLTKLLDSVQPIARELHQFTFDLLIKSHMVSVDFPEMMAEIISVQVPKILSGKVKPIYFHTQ
As to the kind of experiment: Agonist activity at androgen receptor-LBD expressed in HEK293 cells assessed as Gal4-DBD interaction by cellular mammalian one hybrid assay.

Assay [4] addresses T5, Oxysterols receptor LXR-beta (Homo sapiens, UniProt P55055).
T5 sequence (P55055 whole entry): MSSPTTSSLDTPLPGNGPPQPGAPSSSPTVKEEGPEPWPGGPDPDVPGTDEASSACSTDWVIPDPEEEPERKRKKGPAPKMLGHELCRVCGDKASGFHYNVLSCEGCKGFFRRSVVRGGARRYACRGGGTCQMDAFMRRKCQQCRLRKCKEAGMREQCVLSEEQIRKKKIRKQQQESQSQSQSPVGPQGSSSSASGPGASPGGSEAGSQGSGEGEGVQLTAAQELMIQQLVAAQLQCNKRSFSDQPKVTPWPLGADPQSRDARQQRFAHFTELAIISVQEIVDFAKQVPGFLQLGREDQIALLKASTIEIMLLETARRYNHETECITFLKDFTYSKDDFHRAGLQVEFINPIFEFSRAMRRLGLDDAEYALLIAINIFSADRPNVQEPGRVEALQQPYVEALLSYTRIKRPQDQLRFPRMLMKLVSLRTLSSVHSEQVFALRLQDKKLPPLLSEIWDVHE
As to the kind of experiment: Agonist activity at LXRbeta-LBD expressed in HEK293 cells assessed as Gal4-DBD interaction by cellular mammalian one hybrid assay.

As to `CC(C)c1onc(-c2c(Cl)cccc2Cl)c1COc1ccc(N(C)Cc2ccc(C(=O)O)cc2)c(C(F)(F)F)n1`, the EC50 (in assay [1]; in assay [2]; on Androgen receptor; in assay [4]) was more than 10 µM each time. Besides, the Efficacy in assay [3] turned out to be 0%.
Regarding `CN(Cc1ccc(C(=O)O)cc1)c1ccc(OCc2c(-c3c(Cl)cccc3Cl)noc2C2CC2)nc1C(F)(F)F`, the concentration giving a half-maximal response (EC50) (in assay [1]; in assay [2]; on Androgen receptor; in assay [4]) was more than 10 µM throughout. Also, in assay [3], the Efficacy worked out at 0%.
Take `CN(Cc1cccc(C(=O)O)c1)c1ccc(OCc2c(-c3c(Cl)cccc3Cl)noc2C2CC2)nc1C(F)(F)F`: the EC50 (in assay [1]; in assay [2]; on Androgen receptor; in assay [4]) was more than 10 µM throughout. Moreover, the Efficacy in assay [3] was determined as 0%.
